Entries after “also recorded” stand apart in the source; their conditions may differ.
Columns and labels:
[1] = tested on: mitochondrial complex IV (cytochrome c oxidase); assay: Enzymatic activity of hepatic mitochondrial complex IV; type: biochemical, dog; conditions: hepatic mitochondria of treated septic dogs; mean ± SD
From the text: As part of our assessment of mitochondrial function, we also measured the enzymatic activity of hepatic mitochondrial complex IV based on the rationale of Levy et al (10), since these investigators considered that dysfunction of complex IV was the most important determinant of abnormal mitochondrial function in SS. We determined complex IV activity spectrophotometrically by a temperature-controlled Ultrospec™ 2100 ultraviolet-visible spectrophotometer (Biopharmacia Biotech, Uppsala, Sweden) (17). Complex IV activity was measured at 25° C. by monitoring the absorbance decrease of reduced cytochrome c at 550 nm.

[2] = pH in unbuffered solution; type: physicochemical
[3] = tested on: hepatic mitochondria; assay: Oxygen consumption rates of hepatic mitochondria harvested after in vivo treatment (Seahorse XF24); parameters: species or system dog; conditions: treated septic dogs; for coupled respiration (OCR after ADP) of hepatic mitochondria: ADP 4 mM; for maximal (uncoupled) respiration (OCR after FCCP) of hepatic mitochondria: FCCP 4 uM
Method: After completion of the in-vivo measurements, we administered sodium pentobarbital (110 mg/kg) to euthanize the animal. In a subset of animals of each group, we immediately harvested a piece of liver and isolated the mitochondria as described by Schnaitman and Greenawalt (23). Briefly, we minced the extracted liver in mitochondrial isolation buffer (MSHE) that includes 70 mM sucrose, 210 mM mannitol, 5 mM HEPES, 1 mM EGTA, and fatty acid free bovine serum albumin (BSA). We then disrupted the tissue using a drill-driven glass/Teflon dounce homogenizer. We centrifuged the homogenate three times, after which we re-suspended the final pellet in a minimal volume of MSHE+BSA and determined protein (mg/ml). We diluted the mitochondrial preparation in cold mitochondrial assay solution (MAS) that contained 70 mM sucrose, 220 mM mannitol, 10 mM KH2PO4, 5 mM MgCl2, 2 mM HEPES, 1 mM EGTA, and BSA for plating directly onto the custom Seahorse 24-well culture dish (˜20 ug mitochondrial protein/50 ul per well; see further below). After centrifugation of the plate and addition of appropriate substrates, we viewed the mitochondria under a microscope to ensure consistent adherence to the well. We then transferred the plate to the XF24 Analyzer for initiation of the protocol as described below (17).
To examine mitochondrial function in this model, we used a novel new technology that is capable of measuring dynamic changes in mitochondrial function, not easily attainable by other technologies (17). The Seahorse® XF24 extracellular flux analyser (Seahorse Bioscience, MA, USA) refines the technology by which mitochondrial oxygen consumption can be measured. This technology uses a piston to reversibly enclose a small volume (7 ul) above the mitochondria that can monitor oxygen uptake in that volume for 2-5 min, then raises the piston, allowing the bulk incubation medium (˜1 ml) to re-equilibrate. The ability to make up to 4 additions during the experiment allows mitochondrial respiration to be measured under various metabolic conditions. This piece of equipment has never been used to measure mitochondrial function in SS.
In this protocol, we sequentially measured mitochondrial function under various metabolic conditions (17). To obtain basal OCR, we first added a substrate to the preparation that contained pyruvate (10 mM) and malate (2 mM). We then added ADP (adenosine-diphosphate; 4 mM) that allows ATP synthase to function, producing an increase in OCR (coupled OCR) that is termed “state3ADP”. When the ATP/ADP ratio approaches equilibrium, pmf rises, after which proton reentry through the synthase stops and respiration slows. We terminated coupled respiration (i.e. state3ADP) by the addition of the ATP synthase inhibitor oligomycin (2.0 uM) in which we achieved “stateoligomycin” where ATP recycling cannot contribute and there is a stable decrease in OCR. We then added the protonophore, FCCP (4 uM; carbonyl cyanide p-trifluoromethoxy-phenylhydrazone). FCCP leads to uncoupled respiration in which we previously titrated the concentration of FCCP to yield a maximal effect. In mitochondria in which ATP synthase activity is a limiting factor, uncoupled respiration may be greater than coupled respiration. […] We finally added rotenone (R; 2 uM) and antimycin A (AA; 2 uM) which are inhibitors of the electron transport chain (ETC) complexes, I and III, respectively. When added to the mitochondrial preparation, these inhibitors produce a marked decline in mitochondrial respiration since the electron transport chain is inhibited.
With each treatment group, we obtained measurements of basal OCR, coupled OCR (i.e. state3ADP), and maximal OCR. In addition, we calculated coupled and uncoupled respiratory control ratios from state3ADP/stateoligomycin and uncoupled respiration/state FCCP/stateoligomycin, respectively. […]

[4] = listed as gentisic, sodium salt

SMILES	enzymatic activity of mitochondrial complex IV [1]	pH in unbuffered solution [2]	coupled respiration (OCR after ADP) of hepatic mitochondria [3, 4]	coupled respiration (OCR after ADP) of hepatic mitochondria ([3]; sodium salt)	maximal (uncoupled) respiration (OCR after FCCP) of hepatic mitochondria [3]	augmented respiratory capacity (uncoupled minus coupled respiration) [3, 4]	basal respiration (basal OCR) of hepatic mitochondria ([3]; pyruvate and malate substrate)	coupled respiration (OCR after ADP) of hepatic mitochondria [3]
O=C([O-])c1cc(O)ccc1O.[Na+] [GSS, 2,5-dihydroxybenzoic acid sodium salt]	3.68±0.59 umol/min/mg protein	8.2	significantly greater than the other groups; also recorded: large increase in coupled respiration	greater response to ADP as compared to the other groups	increase maximal OCR	lowest; also recorded: reduction in augmented respiratory capacity	restoring basal respiration to the non-septic control value	–
O=C(O)c1cc(O)c(O)c(O)c1 [gallic acid, 3,4,5 trihydroxybenzoic acid]	2.44±0.63 umol/min/mg protein	4.2	–	–	restored the reduction in maximal respiration	–	–	not different from values found in the non-septic control group
